The structures appear in SMILES notation.

The test has as its target T1, trypsin-activated recombinant human renin (Homo sapiens, UniProt P00797).
T1 sequence (P00797 67-406): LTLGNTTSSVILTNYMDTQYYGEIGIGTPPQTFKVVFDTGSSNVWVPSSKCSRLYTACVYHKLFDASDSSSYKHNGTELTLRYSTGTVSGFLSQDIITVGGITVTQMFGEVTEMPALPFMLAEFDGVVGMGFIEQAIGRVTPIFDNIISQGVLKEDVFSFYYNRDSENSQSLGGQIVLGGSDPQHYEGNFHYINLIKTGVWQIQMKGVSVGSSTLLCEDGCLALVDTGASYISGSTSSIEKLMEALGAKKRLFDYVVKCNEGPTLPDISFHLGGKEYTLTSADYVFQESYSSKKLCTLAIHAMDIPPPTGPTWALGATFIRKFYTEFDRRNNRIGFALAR
In words: Renin fluorescence assay (internally quenched peptide substrate). The test is classed as biochemical. The conditions noted are these: compounds I*. In outline:
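Compounds (1 nM–10 μM final, DMSO) were mixed with internally quenched angiotensinogen-sequence substrate in pH 7.0 BES/NaCl/BSA buffer, then 0.2-2 nM trypsin-activated human renin added. Rate from the linear fluorescence increase (340 nm excitation, 495 nm emission) over 60-360 min at rt, compared with uninhibited control.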
For the compound `COC(=O)NCCO[C@@H](c1cc(F)ccc1C)[C@@H]1CCCN(C(=O)NC[C@@H](N)C[C@H]2CCCCOC2)C1` [I*-58a, methyl 2-((R)-((R)-1-((S)-2-amino-3-((R)-oxepan-3-yl)propylcarbamoyl)piperidin-3-yl)(5-fluoro-2-methylphenyl)methoxy)ethylcarbamate], the concentration for half-maximal inhibition (IC50) is under 10 nM.

For the compound `CNCC(C[C@@H]1C[C@@H](F)[C@@H](F)C1)NC(=O)N1CCC[C@@H]([C@@H](OCCNC(=O)OC)c2cccc(Cl)c2)C1` (stereo partly drawn) [I*-125a, methyl 2-((R)-(3-chlorophenyl)((R)-1-((S)-1-((1s,3R,4S)-3,4-difluorocyclopentyl)-3-(methylamino)propan-2-ylcarbamoyl)piperidin-3-yl)methoxy)ethylcarbamate], the IC50 is under 10 nM.

With `CNC[C@H](CC1CCOCC1)NC(=O)N1CCC[C@@H]([C@@H](OCCNC(=O)OC)c2cc(Cl)ccc2C)C1` [I*-101a, methyl 2-((R)-(5-chloro-2-methylphenyl)((R)-1-((S)-1-(methylamino)-3-(tetrahydro-2H-pyran-4-yl)propan-2-ylcarbamoyl)piperidin-3-yl)methoxy)ethylcarbamate], the concentration for half-maximal inhibition (IC50) is under 10 nM. With `CNC[C@H](C[C@H]1CCC(=O)N(C)C1)NC(=O)N1CCC[C@@H]([C@@H](OCCNC(=O)OC)c2cccc(Cl)c2)C1` [I*-131a, methyl 2-((R)-(3-chlorophenyl)((R)-1-((S)-1-((R)-1-methyl-6-oxopiperidin-3-yl)-3-(methylamino)propan-2-ylcarbamoyl)piperidin-3-yl)methoxy)ethylcarbamate], the half-inhibitory concentration (IC50) is over 50 nM. In the case of `CNC[C@H](CC1CCCOCC1)NC(=O)N1CCC[C@@H]([C@@H](OCCNC(=O)OC)c2cccc(Cl)c2F)C1` (stereo partly drawn) [I*-137a, methyl 2-((R)-(3-chloro-2-fluorophenyl)((3R)-1-((S)-1-(methylamino)-3-(oxepan-4-yl)propan-2-ylcarbamoyl)piperidin-3-yl)methoxy)ethylcarbamate] it was under 10 nM. For `CNC[C@H](C[C@H]1CCC2(CC2)OC1)NC(=O)N1CCC[C@@H]([C@@H](OCCNC(=O)OC)c2cccc(F)c2)C1` [I*-159a, methyl 2-((R)-(3-fluorophenyl)((R)-1-((S)-1-((R)-4-oxaspiro[2.5]octan-6-yl)-3-(methylamino)propan-2-ylcarbamoyl)piperidin-3-yl)methoxy)ethylcarbamate], the IC50 was under 10 nM.

For `CNC[C@H](CCC1(OC)CCCC1)NC(=O)N1CCC[C@@H]([C@@H](OCCNC(=O)OC)c2cccc(F)c2)C1` [I*-78a, methyl 2-((R)-(3-fluorophenyl)((R)-1-((S)-4-(1-methoxycyclopentyl)-1-(methylamino)butan-2-yl-carbamoyl)piperidin-3-yl)methoxy)ethylcarbamate], the concentration for half-maximal inhibition (IC50) was over 50 nM. As for `CNC[C@H](CC1CCCCCC1)NC(=O)N1CCC[C@@H]([C@@H](OCCNC(=O)OC)c2cccc(Cl)c2F)C1` [I*-135a, methyl 2-((R)-(3-chloro-2-fluorophenyl)((R)-1-((S)-1-cycloheptyl-3-(methylamino)propan-2-ylcarbamoyl)piperidin-3-yl)methoxy)ethylcarbamate], the figure is under 10 nM. On to `CNC[C@@H](NC(=O)N1CCC[C@@H]([C@@H](OCCNC(=O)OC)c2cccc(Cl)c2F)C1)[C@@H](O)C1CCCCC1` [I*-138a, methyl 2-((R)-(3-chloro-2-fluorophenyl)((R)-1-((1S,2R)-1-cyclohexyl-1-hydroxy-3-(methylamino)propan-2-ylcarbamoyl)piperidin-3-yl)methoxy)ethylcarbamate], for which the IC50 was under 10 nM.

For `CNC[C@H](C[C@H]1CCC2(CC2)OC1)NC(=O)N1CCC[C@@H]([C@@H](OCCNC(=O)OC)c2cccc(Cl)c2)C1` [I*-158a, methyl 2-((R)-(3-chlorophenyl)((R)-1-((S)-1-((R)-4-oxaspiro[2.5]octan-6-yl)-3-(methylamino)propan-2-ylcarbamoyl)piperidin-3-yl)methoxy)ethylcarbamate], the IC50 is under 10 nM.

As usually defined, the IC50 is the concentration that inhibits the measured activity by half.

(Values after US8487108B2, “Piperidinyl carbamate intermediates for the synthesis of aspartic protease inhibitors” (Vitae Pharmaceuticals, Inc., priority 2005, dated 2013).)
